Literature values as cited in patent US20230149510A1, “METHOD FOR ALLEVIATING ARTHRITIS USING EPIDERMAL GROWTH FACTOR” (Lovin BioMed Co., Ltd., priority 2021, published 2023).

Assays:
[1] = test system: collagen-induced arthritis; conditions: Swanson C. D. et al. (2012); cited from earlier work
[2] = test system: OA; conditions: Sun H. et al. (2018); cited from earlier work

Structure (SMILES) | effect on collagen-induced arthritis [1] | effect on symptoms in mice with OA [2]
C#Cc1cccc(Nc2ncnc3cc(OCCOC)c(OCCOC)cc23)c1 [erlotinib] | can alleviate collagen-induced arthritis | –
COc1cc2ncnc(Nc3ccc(F)c(Cl)c3)c2cc1OCCCN1CCOCC1 [gefitinib] | – | can improve symptoms in mice with OA
